{
  "source": "patent EP1094724B1",
  "about": "“USE OF A PHENOL OXIDISING ENZYME IN THE TREATMENT OF TOBACCO” (priority 1998, dated 2000)",
  "molecular_target": "T1, Trametes villosa laccase (TvL) (Trametes villosa, UniProt Q99044)",
  "T1 construct": "purchased Novo Nordisk A/S",
  "T1 sequence (Q99044 22-520)": "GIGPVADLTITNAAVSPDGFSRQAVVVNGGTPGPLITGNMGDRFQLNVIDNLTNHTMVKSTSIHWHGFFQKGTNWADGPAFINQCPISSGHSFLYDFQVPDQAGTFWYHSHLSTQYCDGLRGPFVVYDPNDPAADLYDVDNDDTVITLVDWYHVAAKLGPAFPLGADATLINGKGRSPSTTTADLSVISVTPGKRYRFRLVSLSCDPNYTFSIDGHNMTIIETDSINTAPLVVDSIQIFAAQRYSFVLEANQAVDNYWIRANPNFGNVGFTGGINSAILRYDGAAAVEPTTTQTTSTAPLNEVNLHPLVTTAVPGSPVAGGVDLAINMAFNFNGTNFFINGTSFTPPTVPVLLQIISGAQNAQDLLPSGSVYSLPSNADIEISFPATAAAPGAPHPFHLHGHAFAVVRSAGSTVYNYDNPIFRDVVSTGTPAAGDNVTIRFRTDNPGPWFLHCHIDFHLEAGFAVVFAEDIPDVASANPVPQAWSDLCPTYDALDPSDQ",
  "experiment": "Laccase TvL treatment of tobacco extract, HPLC analysis of phenolic compounds (peak area)",
  "type": "biochemical",
  "conditions": "for % Remaining (peak area) after various treatment times: intensive, submerse aeration; for % Remaining (peak area) after 75 minutes / % Remaining (peak area) after 240 minutes: 1.6 µg/ml TvL, ambient temperature (approximately 20°C); for % Remaining (peak area) after 75 minutes / % Remaining (peak area) after 240 minutes / reduction in the area of the peaks (HPLC) following enzyme treatment: surface aeration; for reduction in the area of the peaks (HPLC) following enzyme treatment: tobacco extract, approximately 1.6 µg/ml TvL, pH 5.5 and 55°C",
  "description": "The content of phenolic compounds is analysed by HPLC according to the procedure described below: • Liquid chromatographic system: E.g. Shimadzu SCL-6B System Controller, and two LC-6A Liquid Chromatograph (pumps) or Waters model 600 E • Injector: Shimadzu SIL 6B Autoinjector or Waters 715 Ultra Wisp. UV detector: Shimadzu SPD-6A Photodiode Array UV-VIS detector or Waters Model 481 • Software: CLASS LC10 / CLASS-MXA or Maxima 820 • Column: Supelcosil™ LC-18 25 cm x 4.6 mm (Supelco, #5-8298) or µ Bondapack C198 stainless steel column, 30 cm x 4 mm i.d., 10 µm particle size. • Guard column: none or Guard-Pak from Waters packed with the same material. • Temperature: Ambient • Mobile phase flow: 1.3 ml/min • Injection volume: 20µl • Wavelength: 350 nm • Eluent: Binary gradient (linear) mixture of A: KH2PO4 (28.4 g in 2000 ml de-mineralised water) and B: methanol (please see table 1 and figure 1). The eluent is filtered through a 0.45 µm filter and degassed before use.\nPrior to HPLC analysis, the samples were filtered through a 0.45 µm filter or smaller, e.g. a sterile Sartorius Minisart 0.45 µm filter (#16555) or a Millipore Millex-GS 0.22 µm (#SBGS 0 25 SB) to remove the haze/precipitate normally formed during enzyme treatment. Normally, no dilution of the extract/sample was made before HPLC analysis.\nFor qualitative and semi-quantitative measurements, each of the standards was dissolved in 96% ethanol, and then mixed in a ratio and at a concentration which was within the range in the tobacco extract. For semi-quantification of the phenolic compounds in the tobacco extract, and as a measure of development in concentration of the various compounds contained in the extract, decrease in peak area relative to the peak area before addition of enzyme was used. As a measure of overall efficiency of the process, degree of reduction in total peak area of all peaks (not only the major ones) in the HPLC chromatogram with retention time Rt>3 min was used (named: \"All peaks\").\nUnless otherwise indicated, the tobacco was extracted at a laboratory scale with water according to the following procedure: 1000 ml demineralised water is heated to 45°C. 30 g tobacco (approx. 25 g d.m.) is added and the mixture stirred by a magnetic bar and occasionally with a stick. After 15 minutes the tobacco residue is separated from the tobacco extract by vacuum filtration (Whatman glass micro fibre GF/F 11 cm). The filtered extract is then vacuum filtered at least once more or until it is completely clear. Yield was around 900 ml tobacco extract. […] No buffer was thus included in any of the trials. D.m. content of the extract was approximately 2.1%.\nTobacco extract (typically 50-100 ml) was poured into a glass beaker and a magnetic bar was added. No pH adjustments were made, and no buffer was added. The tobacco extract was heated to and controlled at 55°C during the entire enzyme treatment by means of a heating plate and a thermostat. Intensive submerse aeration was applied by blowing atmospheric air into the extract by means of a metal sinter (metal suction filter normally used for HPLC). The enzyme in question (TvL or PpL) was added to the desired concentration. Shortly after addition of laccase, the colour of the tobacco extract turned dark brown to black, and with time the liquor became turbid and a precipitate formed. The liquor was sampled with intervals for HPLC analysis.\nEnzyme treatment: Surface aeration was used. TvL enzyme was added to the tobacco extract to a concentration of approximately 1.6 µg/ml. […] HPLC chromatograms of the tobacco extract before, during, and after enzyme treatment as well as chromatograms of the mixture of HPLC standards are shown in figure 6, 7, ,8, and 9.\nEnzyme treatment: pH of the extract was adjusted with H2SO4 or NaOH to pH 4, pH 5, pH 6, or pH 7. The extract was kept at ambient temperature (approximately 20°C) during the entire enzyme treatment. Surface aeration was used. […]",
  "key": {"[1]": {"conditions": "40 Min, approximately 1.6 µg/ml TvL at 55°C and pH 5.4"}, "[2]": {"conditions": "40 Min, approximately 7.8µg/ml TvL at 55°C and pH 5.4"}, "[3]": {"conditions": "80 Min, approximately 1.6 µg/ml TvL at 55°C and pH 5.4"}, "[4]": {"conditions": "120 Min, approximately 1.6 µg/ml TvL at 55°C and pH 5.4"}},
  "data": [
    {"smiles": "O=C(C=Cc1ccc(O)c(O)c1)OC1CC(O)(C(=O)O)CC(O)C1O", "note": "(centres unmarked) [CA, 3-[[3-(3,4-Dihydroxyphenyl)-1-oxo-2-propenyl]oxy]1,4,5-trihydroxycyclohexanecarboxylic acid]", "values": [
      {"measurement": "% Remaining (peak area) after various treatment times", "setting": "[1]", "result": 23, "unit": "%"},
      {"measurement": "% Remaining (peak area) after various treatment times", "setting": "[2]", "result": 0, "unit": "%"},
      {"measurement": "% Remaining (peak area) after various treatment times", "setting": "[3]", "result": 0, "unit": "%"},
      {"measurement": "% Remaining (peak area) after various treatment times", "setting": "[4]", "result": 0, "unit": "%"},
      {"measurement": "% Remaining (peak area) after 75 minutes", "setting": "pH 4", "result": 5, "unit": "%"},
      {"measurement": "% Remaining (peak area) after 240 minutes", "setting": "pH 4", "result": 0, "unit": "%"},
      {"measurement": "% Remaining (peak area) after 75 minutes", "setting": "pH 5", "result": 11, "unit": "%"},
      {"measurement": "% Remaining (peak area) after 240 minutes", "setting": "pH 5", "result": 0, "unit": "%"},
      {"measurement": "% Remaining (peak area) after 75 minutes", "setting": "pH 6", "result": 22, "unit": "%"},
      {"measurement": "% Remaining (peak area) after 240 minutes", "setting": "pH 6", "result": 0, "unit": "%"},
      {"measurement": "% Remaining (peak area) after 75 minutes", "setting": "pH 7", "result": 94, "unit": "%"},
      {"measurement": "% Remaining (peak area) after 240 minutes", "setting": "pH 7", "result": 85, "unit": "%"},
      {"measurement": "reduction in the area of the peaks (HPLC) following enzyme treatment", "result": "significant reduction"}
    ]},
    {"smiles": "COc1cc2ccc(=O)oc2cc1O", "note": "[S, 7-Hydroxy-6-methoxy-2H-1-benzopyran-2-one]", "values": [
      {"measurement": "% Remaining (peak area) after various treatment times", "setting": "[1]", "result": 82, "unit": "%"},
      {"measurement": "% Remaining (peak area) after various treatment times", "setting": "[2]", "result": 3, "unit": "%"},
      {"measurement": "% Remaining (peak area) after various treatment times", "setting": "[3]", "result": 30, "unit": "%"},
      {"measurement": "% Remaining (peak area) after various treatment times", "setting": "[4]", "result": 12, "unit": "%"},
      {"measurement": "% Remaining (peak area) after 75 minutes", "setting": "pH 4", "result": 89, "unit": "%"},
      {"measurement": "% Remaining (peak area) after 240 minutes", "setting": "pH 4", "result": 58, "unit": "%"},
      {"measurement": "% Remaining (peak area) after 75 minutes", "setting": "pH 5", "result": 94, "unit": "%"},
      {"measurement": "% Remaining (peak area) after 240 minutes", "setting": "pH 5", "result": 12, "unit": "%"},
      {"measurement": "% Remaining (peak area) after 75 minutes", "setting": "pH 6", "result": 96, "unit": "%"},
      {"measurement": "% Remaining (peak area) after 240 minutes", "setting": "pH 6", "result": 6, "unit": "%"},
      {"measurement": "% Remaining (peak area) after 75 minutes", "setting": "pH 7", "result": 100, "unit": "%"},
      {"measurement": "% Remaining (peak area) after 240 minutes", "setting": "pH 7", "result": 112, "unit": "%"},
      {"measurement": "reduction in the area of the peaks (HPLC) following enzyme treatment", "result": "significant reduction"}
    ]}
  ]
}
